According to ChEMBL document CHEMBL1134035, “Novel 5,5-disubstitutedpyrimidine-2,4,6-triones as selective MMP inhibitors” (Bioorg Med Chem Lett, 2001):

What was measured:
Interstitial collagenase = target: T1, Interstitial collagenase (Homo sapiens, UniProt P03956); experiment: Inhibition of Matrix metalloprotease-1
T1 sequence (P03956 whole entry): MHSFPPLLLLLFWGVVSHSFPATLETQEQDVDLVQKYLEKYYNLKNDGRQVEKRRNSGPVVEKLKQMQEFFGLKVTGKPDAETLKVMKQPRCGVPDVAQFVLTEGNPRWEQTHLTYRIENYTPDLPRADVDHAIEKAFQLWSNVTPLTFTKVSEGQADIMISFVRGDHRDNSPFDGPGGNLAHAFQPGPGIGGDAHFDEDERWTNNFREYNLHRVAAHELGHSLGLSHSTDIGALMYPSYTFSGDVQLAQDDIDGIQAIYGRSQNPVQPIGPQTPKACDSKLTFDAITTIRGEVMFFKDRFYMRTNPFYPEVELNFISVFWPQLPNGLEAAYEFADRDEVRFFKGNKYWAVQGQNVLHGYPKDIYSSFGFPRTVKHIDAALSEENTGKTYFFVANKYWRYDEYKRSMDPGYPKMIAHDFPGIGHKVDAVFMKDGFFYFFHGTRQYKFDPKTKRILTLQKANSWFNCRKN

Stromelysin-1 = Stromelysin-1 (Homo sapiens, UniProt P08254); experiment: Inhibition of Stromelysin, matrix metalloprotease-3
Matrilysin = target: T2, Matrilysin (Homo sapiens, UniProt P09237); experiment: Inhibition of matrilysin, Matrix metalloprotease-7
T2 sequence (P09237 whole entry): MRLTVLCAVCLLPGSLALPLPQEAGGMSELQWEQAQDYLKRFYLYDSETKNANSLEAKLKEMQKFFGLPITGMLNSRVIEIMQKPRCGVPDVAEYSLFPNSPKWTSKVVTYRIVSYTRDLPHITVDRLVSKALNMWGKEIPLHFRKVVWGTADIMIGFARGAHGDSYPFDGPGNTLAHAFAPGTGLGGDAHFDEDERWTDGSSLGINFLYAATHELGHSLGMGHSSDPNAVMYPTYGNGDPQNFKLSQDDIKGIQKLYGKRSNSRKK

[1] = target: Matrix metalloproteinase-9 (Homo sapiens, UniProt P14780); experiment: Inhibition of Gelatinase B, matrix metalloprotease-9
[2] = target: 72 kDa type IV collagenase (Homo sapiens, UniProt P08253); experiment: Inhibition of Gelatinase A, matrix metalloprotease-2
Neutrophil collagenase = Neutrophil collagenase (Homo sapiens, UniProt P22894); experiment: Inhibition of human neutrophil collagenase-I, Matrix metalloprotease-8
Neutrophil collagenase, sequence (P22894 whole entry): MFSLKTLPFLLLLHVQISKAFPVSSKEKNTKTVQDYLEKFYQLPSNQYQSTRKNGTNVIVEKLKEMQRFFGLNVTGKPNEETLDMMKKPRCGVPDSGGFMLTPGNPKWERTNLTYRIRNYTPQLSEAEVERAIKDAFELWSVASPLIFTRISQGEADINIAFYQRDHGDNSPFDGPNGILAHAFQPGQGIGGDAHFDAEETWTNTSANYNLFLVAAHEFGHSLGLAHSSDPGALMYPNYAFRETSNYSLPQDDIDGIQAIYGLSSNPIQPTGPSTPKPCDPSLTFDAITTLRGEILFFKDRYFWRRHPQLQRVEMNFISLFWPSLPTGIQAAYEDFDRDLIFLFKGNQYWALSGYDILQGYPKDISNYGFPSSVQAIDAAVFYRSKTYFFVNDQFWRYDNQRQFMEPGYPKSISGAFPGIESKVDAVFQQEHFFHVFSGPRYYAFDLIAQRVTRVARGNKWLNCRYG

Matrix metalloproteinase-9, sequence (P14780 whole entry): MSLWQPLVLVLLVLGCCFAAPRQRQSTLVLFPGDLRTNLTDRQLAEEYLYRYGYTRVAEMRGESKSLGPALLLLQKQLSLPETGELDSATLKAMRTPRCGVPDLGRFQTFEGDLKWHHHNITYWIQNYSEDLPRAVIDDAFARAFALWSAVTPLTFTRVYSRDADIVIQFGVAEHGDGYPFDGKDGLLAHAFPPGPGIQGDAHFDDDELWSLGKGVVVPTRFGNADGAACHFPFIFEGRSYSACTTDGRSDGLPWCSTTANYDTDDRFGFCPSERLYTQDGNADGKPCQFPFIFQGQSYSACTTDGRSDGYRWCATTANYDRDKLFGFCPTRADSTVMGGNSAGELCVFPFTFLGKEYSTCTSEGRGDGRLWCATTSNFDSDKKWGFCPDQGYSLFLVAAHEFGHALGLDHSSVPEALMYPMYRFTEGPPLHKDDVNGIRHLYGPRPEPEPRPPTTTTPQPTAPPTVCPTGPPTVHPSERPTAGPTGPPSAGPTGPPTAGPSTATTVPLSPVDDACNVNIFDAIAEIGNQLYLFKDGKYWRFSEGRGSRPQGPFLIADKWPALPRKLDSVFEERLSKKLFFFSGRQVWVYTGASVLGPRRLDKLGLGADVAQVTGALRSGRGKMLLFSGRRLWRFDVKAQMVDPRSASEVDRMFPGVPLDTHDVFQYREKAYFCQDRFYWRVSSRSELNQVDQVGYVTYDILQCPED
Stromelysin-1, sequence (P08254 whole entry): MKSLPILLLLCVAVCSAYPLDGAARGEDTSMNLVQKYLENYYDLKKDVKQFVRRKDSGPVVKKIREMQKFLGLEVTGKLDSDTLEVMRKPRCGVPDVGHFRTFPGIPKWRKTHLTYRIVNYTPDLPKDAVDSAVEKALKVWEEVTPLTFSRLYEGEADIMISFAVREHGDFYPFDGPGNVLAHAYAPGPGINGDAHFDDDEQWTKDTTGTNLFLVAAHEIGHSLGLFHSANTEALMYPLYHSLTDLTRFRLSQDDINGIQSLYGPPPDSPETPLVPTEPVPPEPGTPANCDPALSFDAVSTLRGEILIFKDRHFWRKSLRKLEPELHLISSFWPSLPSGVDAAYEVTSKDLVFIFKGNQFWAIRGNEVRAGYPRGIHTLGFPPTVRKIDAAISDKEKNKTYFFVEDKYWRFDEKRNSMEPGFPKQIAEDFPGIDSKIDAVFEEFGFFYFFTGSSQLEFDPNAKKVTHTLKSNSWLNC
72 kDa type IV collagenase, sequence (P08253 whole entry): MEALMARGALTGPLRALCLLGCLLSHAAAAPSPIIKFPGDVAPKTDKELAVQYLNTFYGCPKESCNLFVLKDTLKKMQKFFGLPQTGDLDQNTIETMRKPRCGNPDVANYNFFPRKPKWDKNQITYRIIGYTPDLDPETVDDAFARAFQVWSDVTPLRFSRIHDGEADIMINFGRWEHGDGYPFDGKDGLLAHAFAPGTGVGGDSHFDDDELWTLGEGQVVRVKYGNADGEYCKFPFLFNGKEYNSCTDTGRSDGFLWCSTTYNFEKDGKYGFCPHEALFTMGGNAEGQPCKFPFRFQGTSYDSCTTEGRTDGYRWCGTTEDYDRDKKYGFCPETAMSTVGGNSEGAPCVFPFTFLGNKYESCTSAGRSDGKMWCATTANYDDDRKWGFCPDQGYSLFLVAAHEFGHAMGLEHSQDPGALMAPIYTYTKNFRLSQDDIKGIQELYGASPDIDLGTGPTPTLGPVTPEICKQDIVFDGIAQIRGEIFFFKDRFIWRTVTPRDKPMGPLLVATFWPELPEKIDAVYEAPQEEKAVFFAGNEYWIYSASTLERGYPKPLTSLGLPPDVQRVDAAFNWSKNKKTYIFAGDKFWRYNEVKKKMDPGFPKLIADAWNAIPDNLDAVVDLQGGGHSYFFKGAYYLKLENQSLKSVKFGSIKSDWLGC

Row | SMILES | IC50 (Interstitial collagenase) [µM] | IC50 (Stromelysin-1) [µM] | IC50 (Matrilysin) [µM] | IC50 [1] [µM] | IC50 [2] [µM] | IC50 (Neutrophil collagenase) [µM]
1 | CCCCCCC1(c2ccccc2)C(=O)NC(=O)NC1=O | > 2 | 30 | > 50 | 0.33 | 1.3 | –
2 | O=C1NC(=O)C(CCO)(c2ccc(Oc3ccccc3)cc2)C(=O)N1 | > 2 | – | > 50 | – | – | –
3 | CCCCCCC1(c2ccc(-c3ccccc3)cc2)C(=O)NC(=O)NC1=O | > 2 | – | > 50 | 0.863 | 0.868 | –
4 | CC1(c2ccc(Oc3ccccc3)cc2)C(=O)NC(=O)NC1=O | > 2 | 2 | > 50 | – | 0.081 | 0.081
5 | O=C1NC(=O)C(c2ccc(Oc3ccccc3)cc2)C(=O)N1 | > 2 | – | > 50 | 14 | 9 | –
6 | CCCCCCC1(c2ccc(Oc3ccccc3)cc2)C(=O)NC(=O)NC1=O | > 2 | 2 | > 50 | 0.018 | 0.021 | 0.13
7 | CCCCCCC1(c2ccc(-c3ccccc3)cc2)C(=O)NC(=S)NC1=O | > 2 | – | > 50 | 12 | 13 | –
8 | CCCCCCCCOc1ccc(CC2(C)C(=O)NC(=O)NC2=O)cc1 | > 2 | 1 | > 50 | 0.164 | 0.53 | –
9 | O=C1NC(=O)C(COCc2ccccc2)(c2ccc(Oc3ccccc3)cc2)C(=O)N1 | > 2 | 0.93 | > 50 | 0.017 | 0.019 | –
10 | CC1(c2ccccc2)C(=O)NC(=O)NC1=O | > 2 | – | > 50 | 11 | 50 | –
11 | CN1C(=O)NC(=O)C(C)(c2ccc(Oc3ccccc3)cc2)C1=O (stereo not drawn) | > 2 | – | > 50 | > 50 | > 50 | –
12 | CCC1(c2ccc(-c3ccccc3)cc2)C(=O)NC(=O)NC1=O | > 2 | 9 | > 50 | 0.696 | 0.898 | –
